From PMC12396409, “Screening and hit evaluation of a microbial metabolite library against the pathogenic Plasmodium falciparum and Toxoplasma gondii parasites” (International Journal for Parasitology: Drugs and Drug …, 2025)
Where two headings read alike, the source gives them in different places.

Assays:
[1] = tested on: P. falciparum 3D7 parasites; test: P. falciparum growth inhibition assay, 1-cycle (72 h treatment), SYBR DNA staining (library screen at 2 μg/mL and dose-response); type: cell-based, Plasmodium falciparum; settings: for activity at 2 µg/mL: Plasmodium falciparum
[2] = tested on: T. gondii RH strain (RH-Tub-eYFP) tachyzoites; test: microbe, parasite or virus in culture; type: cell-based, Toxoplasma gondii; settings: 72 h; for percent parasite growth at 2 µg/mL: Toxoplasma gondii
[3] = tested on: P. falciparum 3D7 parasites; test: P. falciparum growth inhibition assay, 2-cycle (120 h treatment), delayed-death screen and dose-response; type: cell-based, Plasmodium falciparum; settings: for activity at 2 µg/mL: Plasmodium falciparum
[4] = 3D7, library screen at 2 μg/mL, 72 h, % growth, replicate 1, read-out: Pf_72h_%Growth_Rep1
[5] = 3D7, library screen at 2 μg/mL, 72 h, % growth, replicate 2, read-out: Pf_72h_%Growth_Rep2
[6] = library screen at 2 μg/mL, % growth, replicate 1, read-out: Tg_72h_%Growth_Rep1
[7] = library screen at 2 μg/mL, % growth, replicate 2, read-out: Tg_72h_%Growth_Rep2
[8] = 3D7, library screen at 2 μg/mL, 120 h, % growth, replicate 1, read-out: Pf_120h_%Growth_Rep1
[9] = 3D7, library screen at 2 μg/mL, 120 h, % growth, replicate 2, read-out: Pf_120h_%Growth_Rep2
[10] = library screen at 2 μg/mL, 72 h, % growth, replicate 1
[11] = library screen at 2 μg/mL, 72 h, % growth, replicate 2
[12] = library screen at 2 μg/mL, % growth, replicate 1
[13] = library screen at 2 μg/mL, % growth, replicate 2
[14] = library screen at 2 μg/mL, 120 h, % growth, replicate 1
[15] = library screen at 2 μg/mL, 120 h, % growth, replicate 2

In the case of Cinnamycin, the Pf_72h_%Growth_Rep1 ([1]; P. falciparum, 72 h, screen at 2 μg/mL, replicate 1) is reported as 85.92%, the Pf_72h_%Growth_Rep2 ([1]; P. falciparum, 72 h, screen at 2 μg/mL, replicate 2) is reported as 85.03% and the Tg_72h_%Growth_Rep1 ([2]; T. gondii, screen at 2 μg/mL, replicate 1) is reported as 85.83%. The Tg_72h_%Growth_Rep2 ([2]; T. gondii, screen at 2 μg/mL, replicate 2) was 93.54%, the Pf_120h_%Growth_Rep1 ([3]; P. falciparum, 120 h, screen at 2 μg/mL, replicate 1) was 137.57% and the Pf_120h_%Growth_Rep2 ([3]; P. falciparum, 120 h, screen at 2 μg/mL, replicate 2) was 92.38%.
Compound `[N-]=[N+]=NCC(=O)N[C@H](CO)[C@H](O)c1ccc([N+](=O)[O-])cc1` [Azidamfenicol] has an activity at 2 µg/mL [1, 4] of 82.7%, an activity at 2 µg/mL [1, 5] of 84.9% and a percent parasite growth at 2 µg/mL [2, 6] of 129%. For the same compound, the percent parasite growth at 2 µg/mL [2, 7] was 103%, the activity at 2 µg/mL [3, 8] was 64.6% and the activity at 2 µg/mL [3, 9] was 95.3%.
Work on `COC1/C=C\C=C(/C)C(=O)NC2=CC(=O)C(NCCN(C)C)=C(C[C@@H](C)C[C@H](OC)[C@H](O)[C@@H](C)/C=C(\C)[C@@H]1OC(N)=O)C2=O` (stereo partly shown) yielded a Pf_72h_%Growth_Rep1 [1, 10] of 11.89%, a Pf_72h_%Growth_Rep2 [1, 11] of -0.93% and a Tg_72h_%Growth_Rep1 [2, 12] of -1.12%. The Tg_72h_%Growth_Rep2 [2, 13] was -0.16%, the Pf_120h_%Growth_Rep1 [3, 14] was 10.33% and the Pf_120h_%Growth_Rep2 [3, 15] was 2.04%.
Compound `COc1cc(-c2cc3c(c(=O)o2)C[C@]2(O)[C@@]4(C)C(=O)C=CC(C)(C)[C@]4(O)CC[C@@]2(C)O3)cc2c1OCO2` [Territrem A] has a Mean ([1]; P. falciparum, 72 h, 2 μg/mL, mean of both replicates, growth (% of control)) of 49.47, an activity at 2 µg/mL ([1]; 3D7, 72 h, P. falciparum, 72 h, screen at 2 μg/mL, replicate 1, read-out: Pf_72h_%Growth_Rep1) of 14.3% and an activity at 2 µg/mL ([1]; 3D7, 72 h, P. falciparum, 72 h, screen at 2 μg/mL, replicate 2, read-out: Pf_72h_%Growth_Rep2) of 84.6%. It also gave a percent parasite growth at 2 µg/mL ([2]; T. gondii, screen at 2 μg/mL, replicate 1, read-out: Tg_72h_%Growth_Rep1) of 104%, a percent parasite growth at 2 µg/mL ([2]; T. gondii, screen at 2 μg/mL, replicate 2, read-out: Tg_72h_%Growth_Rep2) of 88.7% and an activity at 2 µg/mL ([3]; 3D7, 120 h, P. falciparum, 120 h, screen at 2 μg/mL, replicate 1, read-out: Pf_120h_%Growth_Rep1) of 6.66%. It also gave an activity at 2 µg/mL ([3]; 3D7, 120 h, P. falciparum, 120 h, screen at 2 μg/mL, replicate 2, read-out: Pf_120h_%Growth_Rep2) of 112%.
`COC1=C(N)C(=O)c2nc(-c3nc(C(=O)O)c(C)c(-c4ccc(OC)c(OC)c4O)c3N)ccc2C1=O` [Streptonigrin] gave an activity at 2 µg/mL ([1]; 3D7, 72 h, P. falciparum, 72 h, parasite screen 2 μg/mL, % growth, replicate 1, read-out: Pf_72h_%Growth_Rep1) of 2.61%, an activity at 2 µg/mL ([1]; 3D7, 72 h, P. falciparum, 72 h, parasite screen 2 μg/mL, % growth, replicate 2, read-out: Pf_72h_%Growth_Rep2) of -8.29% and a percent parasite growth at 2 µg/mL ([2]; T. gondii, parasite screen 2 μg/mL, % growth, replicate 1, read-out: Tg_72h_%Growth_Rep1) of 3.6%. It also gave a percent parasite growth at 2 µg/mL ([2]; T. gondii, parasite screen 2 μg/mL, % growth, replicate 2, read-out: Tg_72h_%Growth_Rep2) of 2.59%, an activity at 2 µg/mL ([3]; 3D7, 120 h, P. falciparum, 120 h, parasite screen 2 μg/mL, % growth, replicate 1, read-out: Pf_120h_%Growth_Rep1) of 43.2% and an activity at 2 µg/mL ([3]; 3D7, 120 h, P. falciparum, 120 h, parasite screen 2 μg/mL, % growth, replicate 2, read-out: Pf_120h_%Growth_Rep2) of 6.18%.
In the case of `O=C(N[C@H](COC(=O)[C@H](Cc1ccccc1)NC(=O)c1ccccc1)Cc1ccccc1)c1ccccc1` [Asperphenamate], the activity at 2 µg/mL [1, 4] is reported as 84.3%, the activity at 2 µg/mL [1, 5] is reported as 83.3% and the percent parasite growth at 2 µg/mL [2, 6] is reported as 150%. For the same compound, the percent parasite growth at 2 µg/mL [2, 7] was 107%, the activity at 2 µg/mL [3, 8] was 69.7% and the activity at 2 µg/mL [3, 9] was 85.4%.
Compound `O=c1cc(CO)occ1O` [BIA-K1696] has a Pf_72h_%Growth_Rep1 ([1]; P. falciparum 3D7, 72 h, library screen at 2 μg/mL, % growth, replicate 1) of 83.60%, a Pf_72h_%Growth_Rep2 ([1]; P. falciparum 3D7, 72 h, library screen at 2 μg/mL, % growth, replicate 2) of 96.29% and a Tg_72h_%Growth_Rep1 ([2]; T. gondii RH, library screen at 2 μg/mL, % growth, replicate 1) of 111.73%. For the same compound, the Tg_72h_%Growth_Rep2 ([2]; T. gondii RH, library screen at 2 μg/mL, % growth, replicate 2) was 90.68%, the Pf_120h_%Growth_Rep1 ([3]; P. falciparum 3D7, 120 h, library screen at 2 μg/mL, % growth, replicate 1) was 76.01% and the Pf_120h_%Growth_Rep2 ([3]; P. falciparum 3D7, 120 h, library screen at 2 μg/mL, % growth, replicate 2) was 110.07%.
In the case of `Cc1cc(O)c2c3c1C(=O)C=C1C(C)(C)C(=O)c4c(O)cc(O)c(c4C13O)C2=O` (stereo not shown) [Resistoflavine], the Pf_72h_%Growth_Rep1 ([1]; P. falciparum, 72 h, parasite screen 2 μg/mL, % growth, replicate 1) is reported as 97.04%, the Pf_72h_%Growth_Rep2 ([1]; P. falciparum, 72 h, parasite screen 2 μg/mL, % growth, replicate 2) is reported as 109.63% and the Tg_72h_%Growth_Rep1 ([2]; T. gondii, parasite screen 2 μg/mL, % growth, replicate 1) is reported as 250.44%. The Tg_72h_%Growth_Rep2 ([2]; T. gondii, parasite screen 2 μg/mL, % growth, replicate 2) was 135.44%, the Pf_120h_%Growth_Rep1 ([3]; P. falciparum, 120 h, parasite screen 2 μg/mL, % growth, replicate 1) was 116.77% and the Pf_120h_%Growth_Rep2 ([3]; P. falciparum, 120 h, parasite screen 2 μg/mL, % growth, replicate 2) was 93.07%.
With `CC(=O)OCc1c(O)c2c(c3c1OC(=O)c1c(C)cc(O)c(C=O)c1O3)C(O)OC2=O` (stereo not shown) [Galbinic acid] the Pf_72h_%Growth_Rep1 [1, 10] was 88.09%, the Pf_72h_%Growth_Rep2 [1, 11] was 110.75% and the Tg_72h_%Growth_Rep1 [2, 12] was 125.30%. For the same compound, the Tg_72h_%Growth_Rep2 [2, 13] was 103.13%, the Pf_120h_%Growth_Rep1 [3, 14] was 99.54% and the Pf_120h_%Growth_Rep2 [3, 15] was 110.27%.
